Assay [1] deals with hemopoietic progenitor cells (CFU-S). The assay is described as follows: CFU-S content in bone marrow of mice irradiated with 4 Gy. Type of assay: in vivo. Particulars: day 8, control 401 ± 48. The procedure: The effect of H-A-D-Trp-Y, where A is D-Glu or D-iGlu and Y is OH or a substituted amide, on protection and reconstitution of the population of hemopoietic progenitor cells in cytopenias of different origin was studied.
Ionising radiation was used to deplete bone marrow. Donor mice were irradiated at a dose of 4 Gy. For each of the two peptides, 10 μg/kg was injected intraperitoneally 1 hour, 1 day or 2 days before the irradiation (groups of 12 mice each). Bone marrow was taken from femoral bones 8 days after the irradiation. Eight days generally marks the beginning of an exponential reconstitution of both the total number of cells and the population of hemopoietic progenitors in the bone marrow, which were depleted as a result of irradiation.
On the 8th day a sharp statistically significant increase was recorded in the hemopoietic progenitor cells count in the bone marrow of the mice irradiated in the dose of 4 Gy who had received the peptide 2 days before the irradiation.

Assay [2] concerns caryocytes in femoral marrow. The assay is described as follows: Reconstitution of caryocyte numbers in femoral marrow after 4 Gy. The format is in vivo, mice. The procedure:
The reconstitution of caryocyte numbers and that of hemopoietic progenitors was studied in femoral marrow after irradiation in the dose of 4 Gy and the peptide injection. The test was performed in 12 groups of mice, 6 animals each, and lasted 14 days. Intraperitoneal injections of the peptide in a dose of 10 μg/kg were made 1 day and 2 days before the irradiation.

Assay [3] concerns mixed lymphocyte culture (MLC). Put plainly: Mixed lymphocyte culture (MLC) proliferation. The format is cell-based, mice. Particulars: FIG. 1. Here is the method: The influence of the peptides of the invention on the proliferation of a mixed lymphocyte culture (MLC) was studied. The MLC experimental system is an in vitro analogue of the GVHD reaction.
Donor spleen cells from C57B1 mice ([…]) were injected into recipient (CBA×C57B1) F1 mice. Bone marrow was removed from the recipient and cultured for 4 days. The cultured cells were separated into 3 test groups, one group was treated with iDD, one with the L-peptide H-Ile-Glu-Trp-OH and one was a control. Each test peptide was added in various concentrations. Each determination was done in triplicate. ^3H-thymidine was added to each culture for 16 hours and the index of the proliferation of the cells was calculated.

Consider H-D-Glu-D-Trp-OH, for which the entries for the “CFU-S count per femur” value in assay [1] (10 μg/kg IP 1 hour before 4 Gy), in assay [1] (10 μg/kg IP 1 day before 4 Gy) and in assay [1] (10 μg/kg IP 2 days before 4 Gy) were 450 ± 95, 780 ± 92 and 955 ± 93, respectively. In addition, the Caryocyte count in assay [2] (10 μg/kg IP 1 day before 4 Gy, 4 days after irradiation, 4 Gy alone 9,0 ± 0,3) is 8,0 ± 0,7 × 10^6; in assay [2] (10 μg/kg IP 1 day before 4 Gy, 7 days after irradiation, 4 Gy alone 10,6 ± 0,8), 16,4 ± 0,7 × 10^6; in assay [2] (10 μg/kg IP 1 day before 4 Gy, 11 days after irradiation, 4 Gy alone 17,0 ± 0,6), 16,0 ± 1,3 × 10^6; in assay [2] (10 μg/kg IP 1 day before 4 Gy, 14 days after irradiation, 4 Gy alone 17,0 ± 1,2), 15,0 ± 0,6 × 10^6; in assay [2] (10 μg/kg IP 2 days before 4 Gy, 4 days after irradiation, 4 Gy alone 9,0 ± 0,3) it was 8,5 ± 0,5 × 10^6; in assay [2] (10 μg/kg IP 2 days before 4 Gy, 7 days after irradiation, 4 Gy alone 10,6 ± 0,8), 20,0 ± 0,7 × 10^6. For the same substance, the Caryocyte count in assay [2] (10 μg/kg IP 2 days before 4 Gy, 11 days after irradiation, 4 Gy alone 17,0 ± 0,6) is reported as 23,0 ± 1,9 × 10^6; in assay [2] (10 μg/kg IP 2 days before 4 Gy, 14 days after irradiation, 4 Gy alone 17,0 ± 1,2) it was 24,5 ± 0,9 × 10^6.

As for H-Ile-Glu-Trp-OH [reference compound], the “Effect on proliferation of the allogenic lymphocytes (MLC)” value in assay [3] (0.1 μg/ml) is listed as “negligible inhibition”; in assay [3] (concentrations 1, 10, 20 μg/ml), “stimulates the proliferation”.

The values above are taken from US6410515B1, “Peptide, a method for its preparation and a pharmaceutical composition containing the peptide” (Immunotech Developments Inc., priority 1995, dated 2002).
